Experimental data reported in ChEMBL document CHEMBL1201862, “PubChem BioAssay data set” (2004).
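Dose response: 5 concentrations. Exposure: 48 h. Format: 96-well plates. Endpoint: linear interpolation; highest concentration if not reached. GI50 marks 50% less growth.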 Activity calls are given as the source filed them. No stated cut-off is given here; in the data, active = GI50 up to about 1.1 µM and inactive = higher.

What was measured:
Assay in all cases: DTP human tumour cell line panel, 48 h
SK-OV-3 = test system: SK-OV-3
MDA-MB-231 = test system: MDA-MB-231
LOX IMVI = test system: LOX IMVI
SN12C = test system: SN12C
UO-31 = test system: UO-31
PC-3 = test system: PC-3
HCT-116 = test system: HCT-116
HL-60 = test system: HL-60
SNB-19 = test system: SNB-19
SK-MEL-2 = test system: SK-MEL-2
RPMI-8226 = test system: RPMI-8226
NCI-H460 = test system: NCI-H460
Malme-3M = test system: Malme-3M
OVCAR-4 = test system: OVCAR-4
NCI-H226 = test system: NCI-H226
OVCAR-5 = test system: OVCAR-5
ACHN = test system: ACHN
A498 = test system: A498
SW-620 = test system: SW-620
EKVX = test system: EKVX

SMILES | GI50 (SK-OV-3) | GI50 (MDA-MB-231) | GI50 (LOX IMVI) | GI50 (SN12C) | GI50 (UO-31) | GI50 (PC-3) | GI50 (HCT-116) | GI50 (HL-60) | GI50 (SNB-19) | GI50 (SK-MEL-2) | GI50 (RPMI-8226) | GI50 (NCI-H460) | GI50 (Malme-3M) | GI50 (OVCAR-4) | GI50 (NCI-H226) | GI50 (OVCAR-5) | GI50 (ACHN) | GI50 (A498) | GI50 (SW-620) | GI50 (EKVX)
O=C(Cc1ccc(Cl)c(Cl)c1)NCCCN1CCN(CCCN2CCCCC2)CC1 | 19.2 µM (inactive) | 12 µM (inactive) | 14.1 µM (inactive) | 18.8 µM (inactive) | 1.84 µM (inactive) | 18.5 µM (inactive) | 16.3 µM (inactive) | 17.8 µM (inactive) | 26.9 µM (inactive) | 6.59 µM (inactive) | 2.71 µM (inactive) | 16.6 µM (inactive) | 17.6 µM (inactive) | 37.8 µM (inactive) | 21.7 µM (inactive) | 20 µM (inactive) | 27.2 µM (inactive) | 16.4 µM (inactive) | 19.9 µM (inactive) | 19.2 µM (inactive)
OCC(S)CS.[Bi] (stereo not given) | 31.6 µM (inactive) | 24.4 µM (inactive) | 20.7 µM (inactive) | 15.8 µM (inactive) | 16.7 µM (inactive) | 13.1 µM (inactive) | 17.7 µM (inactive) | 16.2 µM (inactive) | 13.7 µM (inactive) | 12.6 µM (inactive) | 2.93 µM (inactive) | 13.4 µM (inactive) | 3.97 µM (inactive) | 23.6 µM (inactive) | 51.8 µM (inactive) | 19.9 µM (inactive) | 16.5 µM (inactive) | 27 µM (inactive) | 16 µM (inactive) | 18 µM (inactive)
Cc1ccc(-c2c(-c3ccccc3)[nH]c(C)c2C(=O)ONC(=O)c2ccccc2)cc1 | 14.4 µM (inactive) | 3.4 µM (inactive) | 1.75 µM (inactive) | 2.53 µM (inactive) | 0.303 µM (active) | 5.92 µM (inactive) | 2.48 µM (inactive) | 0.673 µM (active) | 6.38 µM (inactive) | 3.7 µM (inactive) | 3.46 µM (inactive) | 2.17 µM (inactive) | 11.4 µM (inactive) | 2.72 µM (inactive) | 7.24 µM (inactive) | 8.65 µM (inactive) | 1.91 µM (inactive) | 12.7 µM (inactive) | 8.51 µM (inactive) | 7.28 µM (inactive)
CN(C)c1ccc(/C=C2\C[C@H]3[C@@H]4CCC5=CC(=O)CC[C@]5(C)[C@H]4CC[C@]3(C)C2=O)cc1 | > 100 µM (inactive) | 38.9 µM (inactive) | 20.8 µM (inactive) | 44.3 µM (inactive) | 63.2 µM (inactive) | 12.6 µM (inactive) | 24.7 µM (inactive) | 17.2 µM (inactive) | > 100 µM (inactive) | 50.9 µM (inactive) | 17.5 µM (inactive) | 17.4 µM (inactive) | 25 µM (inactive) | 59.7 µM (inactive) | 62.4 µM (inactive) | > 100 µM (inactive) | 29.4 µM (inactive) | 37.7 µM (inactive) | 48.9 µM (inactive) | 19.2 µM (inactive)
Brc1c2c(c(Br)c3nsnc13)N=S=N2 | 46.2 µM (inactive) | 23.4 µM (inactive) | 3.84 µM (inactive) | 17.4 µM (inactive) | 22.8 µM (inactive) | 32.7 µM (inactive) | 27.4 µM (inactive) | 3.83 µM (inactive) | 26.1 µM (inactive) | 20 µM (inactive) | 22 µM (inactive) | 25.3 µM (inactive) | 31.3 µM (inactive) | 23.1 µM (inactive) | > 46.9 µM (inactive) | 27.6 µM (inactive) | 24.7 µM (inactive) | 42.6 µM (inactive) | 29 µM (inactive) | 27.2 µM (inactive)
C[C@H]1O[C@@H](O[C@H]2[C@@H](O)C[C@H](O[C@H]3[C@@H](O)C[C@H](O[C@H]4CC[C@@]5(C)[C@H](CC[C@@H]6[C@@H]5CC[C@]5(C)[C@@H](C7=CC(=O)OC7)[C@@H](O)C[C@]65O)C4)O[C@@H]3C)O[C@@H]2C)C[C@H](O)[C@@H]1O [GITOXIN] | 0.39 µM (active) | 1.2 µM (inactive) | 0.215 µM (active) | 0.164 µM (active) | 0.219 µM (active) | 0.259 µM (active) | 0.127 µM (active) | 0.116 µM (active) | 0.714 µM (active) | 0.543 µM (active) | 0.197 µM (active) | 0.132 µM (active) | 0.206 µM (active) | 0.271 µM (active) | 0.855 µM (active) | 0.656 µM (active) | 0.0948 µM (active) | 0.237 µM (active) | 0.258 µM (active) | 0.164 µM (active)
NC(=O)c1ncn2c(=O)n(CCCl)nnc12 [MITOZOLOMIDE] | 52.6 µM (inactive) | 220 µM (inactive) | 22.8 µM (inactive) | 115 µM (inactive) | 236 µM (inactive) | 177 µM (inactive) | 132 µM (inactive) | 30.8 µM (inactive) | 93.5 µM (inactive) | 249 µM (inactive) | 229 µM (inactive) | 50.2 µM (inactive) | 145 µM (inactive) | 187 µM (inactive) | 158 µM (inactive) | 225 µM (inactive) | 60.4 µM (inactive) | 191 µM (inactive) | 135 µM (inactive) | 197 µM (inactive)
